# From paper PMC8430629, “Anti-Cancer Effects of Cyclic Peptide ALOS4 in a Human Melanoma Mouse Model” (International Journal of Molecular Sciences, 2021)
# Where a SMILES comes first, the peptide text is derived from it.
# Assays:
# ICR mice [1] = assay: Plasma biochemistry after single IV dose; type: in vivo; conditions: 24 h, mean, n = 5; for Total Bilirubin: normal range 0.16–0.32; for Creatinine: normal range 0.2–0.4; for Globulin: normal range 1.4–2.0; for Alb: normal range 3.3–4.0; for TP: normal range 4.7–5.8; for Phosphorus: normal range 6.4–11.3; for Calcium: normal range 9.8–10.8; for Urea: normal range 39–62; for Cholesterol: normal range 56–133; for Glucose: normal range 169–282
# Description: (§1) ICR mice were treated with single IV injections of ALOS4 (30, 90, or 180 mg/kg) and blood samples were collected at 24 h post-injection to EDTA and serum tubes. Complete blood cell count (CBC) and blood chemistry analyses were performed for saline and ALOS4 treatment groups at a certified animal laboratory (Herzliya Medical Center, Herzliya, Israel).
# [2] = Formulation stability, saline vs saline with 0.1% Tween-80; type: physicochemical; conditions: 0.5-5000 pmol/µL, 60 min, room temperature (25 °C), polypropylene tubes, LC-MS, n = 3
# Description: (§2) Adhesiveness to inert materials was measured for ALOS4 0.9% NaCl(aq) solution in concentrations of 1, 3 10, 30, or 100 µM and incubated in standard laboratory polypropylene microtubes for 60 min at room temperature. Solutions were transferred to either polypropylene LC vials or borosilicate glass LC vials. Optimal formulation stability of ALOS4 was analyzed in either saline solution (0.9% NaCl) or saline solution containing 0.1% tween 80 (polysorbate; Sigma-Aldrich, Cat#P1754, Darmstadt, Germany) at concentrations of 0.5, 5, 50, 500, or 5000 pmol/µL. Solutions were incubated in standard polypropylene tubes for 60 min at room temperature. Acid/base stability was measured for ALOS4 formulated in saline at a concentration of 10 µM and incubated for 1 or 24 h at 3.4, 4.4, 5.4, 6.4, 7.4, or 9.4 pH at temperatures of 4, 25, or 37 °C. Recovery of ALOS4 following these materials assays was assessed by LC-MS.
# [3] = Acid/base and temperature stability; type: physicochemical; conditions: 10 µM in saline, pH 3.4, 4.4, 5.4, 6.4, 7.4, 9.4; 4, 25, 37 °C; 1 or 24 h; polypropylene tubes, LC-MS, n = 3
# Description: as §2
# ICR mice [4] = assay: Open field test; type: in vivo
# Description: To evaluate the effect of ALOS4 on mouse locomotor activity, we used the open field (OF) behavioral test. This assay consists of an arena (30 × 40 cm) with no grid markings and uses an infrared imaging system. […] Each mouse was placed individually in the center of the arena and evaluated for 6 min. Arena center dwell time versus arena border dwell time, as well as total traveled distance, were recorded.
# ICR mice [5] = assay: Repeated IV dose toxicity assessment in cancer-free ICR mice
# Description: Acute single or repeated doses of ALOS4 at 10, 30, 90, 180, or 360 mg/kg were administered intravenously to uninoculated (nominally cancer-free) ICR mice. Body weight, rectal temperature, and survival were evaluated for 14 days following injections. Mice were also evaluated for locomotory and anxiety-like behaviors (open-field and EPM) on treatment day 14.
# ICR mice [6] = assay: Complete blood count after single IV dose; type: in vivo; conditions: for RBC / HGB / MCH / MCHC / Hematocrit / MCV / Platelets / WBC: mean, n = 5; for RBC: normal range 7.31–10.03; for HGB: normal range 13.1–16.2; for MCH: normal range 15–18; for MCHC: normal range 33.7–36.4; for Hematocrit: normal range 36.8–48.7; for MCV: normal range 46.0–50.9; for Platelets: normal range 674–1675; for WBC: blood 24 h post-injection, normal range 6.5–24.5
# Description: as §1
smiles,measurement,setting,value
"CC(C)C[C@@H]1NC(=O)[C@H](CO)NC(=O)CNC(=O)[C@H](C)NC(=O)[C@H](CO)NC(=O)[C@H](CO)NC(=O)[C@@H](N)CSSC[C@@H](C(=O)O)NC(=O)[C@H](Cc2ccccc2)NC1=O [ALOS4, H-cycl(Cys-Ser-Ser-Ala-Gly-Ser-Leu-Phe-Cys)-OH] (HELM PEPTIDE1{C.S.S.A.G.S.L.F.C}$PEPTIDE1,PEPTIDE1,1:R3-9:R3$$$V2.0)",Total Bilirubin,ICR mice [1]; single IV 30 mg/kg,0.11 ± 0.02 mg/dL
same,Creatinine,ICR mice [1]; single IV 30 mg/kg,0.26 ± 0.014 mg/dL
same,Globulin,ICR mice [1]; single IV 30 mg/kg,1.87 ± 0.07 g/dL
same,Alb,ICR mice [1]; single IV 30 mg/kg,4.3 ± 0.14 g/dL
same,TP,ICR mice [1]; single IV 30 mg/kg,6.17 ± 0.18 g/dL
same,Phosphorus,ICR mice [1]; single IV 30 mg/kg,8.6 ± 0.56 mg/dL
same,Calcium,ICR mice [1]; single IV 30 mg/kg,10.29 ± 0.11 mg/dL
same,Urea,ICR mice [1]; single IV 30 mg/kg,46.08 ± 1.7 mg/dL
same,Cholesterol,ICR mice [1]; single IV 30 mg/kg,108.2 ± 9.5 mg/dL
same,Glucose,ICR mice [1]; single IV 30 mg/kg,169.8 ± 6.9 mg/dL
same,Total Bilirubin,ICR mice [1]; single IV 90 mg/kg,0.14 ± 0.02 mg/dL
same,Creatinine,ICR mice [1]; single IV 90 mg/kg,0.25 ± 0.06 mg/dL
same,Globulin,ICR mice [1]; single IV 90 mg/kg,2.02 ± 0.07 g/dL
same,Alb,ICR mice [1]; single IV 90 mg/kg,4.3 ± 0.06 g/dL
same,TP,ICR mice [1]; single IV 90 mg/kg,6.32 ± 0.13 g/dL
same,Phosphorus,ICR mice [1]; single IV 90 mg/kg,9.53 ± 0.4 mg/dL
same,Calcium,ICR mice [1]; single IV 90 mg/kg,10.38 ± 0.29 mg/dL
same,Urea,ICR mice [1]; single IV 90 mg/kg,48.23 ± 3.2 mg/dL
same,Cholesterol,ICR mice [1]; single IV 90 mg/kg,142.25 ± 13.7 mg/dL
same,Glucose,ICR mice [1]; single IV 90 mg/kg,170.75 ± 10.7 mg/dL
same,Total Bilirubin,ICR mice [1]; single IV 180 mg/kg,0.11 ± 0.03 mg/dL
same,Creatinine,ICR mice [1]; single IV 180 mg/kg,0.27 ± 0.02 mg/dL
same,Globulin,ICR mice [1]; single IV 180 mg/kg,1.59 ± 0.4 g/dL
same,Alb,ICR mice [1]; single IV 180 mg/kg,4.36 ± 0.024 g/dL
same,TP,ICR mice [1]; single IV 180 mg/kg,6.28 ± 0.09 g/dL
same,Phosphorus,ICR mice [1]; single IV 180 mg/kg,8.44 ± 0.75 mg/dL
same,Calcium,ICR mice [1]; single IV 180 mg/kg,10.42 ± 0.1 mg/dL
same,Urea,ICR mice [1]; single IV 180 mg/kg,46.02 ± 3.9 mg/dL
same,Cholesterol,ICR mice [1]; single IV 180 mg/kg,141.8 ± 9.1 mg/dL
same,Glucose,ICR mice [1]; single IV 180 mg/kg,183.2 ± 14.3 mg/dL
same,reduction of peptide stability in saline containing 0.1% Tween-80 vs 0.9% NaCl only,[2],1.2 fold
same,stability (recoverability),[3],90–100%
same,"total traveled distance, open field","ICR mice [4]; IV acute single dose 180 mg/kg, n = 5, Bonferroni p = 0.0329",only an exception for total traveled distance
same,"locomotor activity, open field","ICR mice [4]; IV acute single dose 30, 90, 180 mg/kg, n = 5, central arena dwell time",did not affect locomotor activity in general
same,weight-gain,"ICR mice [5]; IV every other day over 21 days (ten doses), 10, 30, 90, 180, 360 mg/kg, n = 5, vs control",no alterations in weight-gain
same,body temperature,"ICR mice [5]; IV every other day over 21 days, 10-360 mg/kg, rectal, 30 min after injection, n = 5",no alterations
same,necropsy assessment for organ damage,"ICR mice [5]; histology of liver, spleen, kidney, lungs, brain, repeated IV 10-360 mg/kg",did not reveal any overt signs of tissue damage or inflammation
same,21-day survival,"ICR mice [5]; maximum tested repeated IV dose 360 mg/kg, n = 5",100%
same,clinical signs,ICR mice [5]; repeated IV 10-360 mg/kg,No adverse overt clinical signs were observed
same,decrease in WBC count,"ICR mice [6]; ICR mice, single IV 180 mg/kg, 24 h",40%
same,RBC,"ICR mice [6]; single IV 30 mg/kg, 24 h",9.16 ± 0.3 10^6/µL
same,HGB,"ICR mice [6]; single IV 30 mg/kg, 24 h",14.3 ± 0.6 g/dL
same,MCH,"ICR mice [6]; single IV 30 mg/kg, 24 h",15.6 ± 0.2 pg
same,MCHC,"ICR mice [6]; single IV 30 mg/kg, 24 h",32.54 ± 0.23 g/dL
same,Hematocrit,"ICR mice [6]; single IV 30 mg/kg, 24 h",43.96 ± 1.9%
same,MCV,"ICR mice [6]; single IV 30 mg/kg, 24 h",47.96 ± 0.6 fL
same,Platelets,"ICR mice [6]; single IV 30 mg/kg, 24 h",582.4 ± 132 10^3/µL
same,WBC,ICR mice [6]; single IV 30 mg/kg,4.51 ± 1.3 10^3/µL
same,RBC,"ICR mice [6]; single IV 90 mg/kg, 24 h",9.78 ± 0.3 10^6/µL
same,HGB,"ICR mice [6]; single IV 90 mg/kg, 24 h",15.42 ± 0.5 g/dL
same,MCH,"ICR mice [6]; single IV 90 mg/kg, 24 h",15.76 ± 0.15 pg
same,MCHC,"ICR mice [6]; single IV 90 mg/kg, 24 h",32.2 ± 0.4 g/dL
same,Hematocrit,"ICR mice [6]; single IV 90 mg/kg, 24 h",47.88 ± 1.1%
same,MCV,"ICR mice [6]; single IV 90 mg/kg, 24 h",48.96 ± 0.24 fL
same,Platelets,"ICR mice [6]; single IV 90 mg/kg, 24 h",770.2 ± 189 10^3/µL
same,WBC,ICR mice [6]; single IV 90 mg/kg,6.07 ± 1.2 10^3/µL
same,RBC,"ICR mice [6]; single IV 180 mg/kg, 24 h",8.02 ± 0.6 10^6/µL
same,HGB,"ICR mice [6]; single IV 180 mg/kg, 24 h",13.2 ± 1.04 g/dL
same,MCH,"ICR mice [6]; single IV 180 mg/kg, 24 h",16.42 ± 0.2 pg
same,MCHC,"ICR mice [6]; single IV 180 mg/kg, 24 h",32.88 ± 0.4 g/dL
same,Hematocrit,"ICR mice [6]; single IV 180 mg/kg, 24 h",40.12 ± 3.15%
same,MCV,"ICR mice [6]; single IV 180 mg/kg, 24 h",49.96 ± 0.32 fL
same,Platelets,"ICR mice [6]; single IV 180 mg/kg, 24 h",661.8 ± 160.5 10^3/µL
same,WBC,ICR mice [6]; single IV 180 mg/kg,3.2 ± 0.06 10^3/µL
